From PMC7656302 (Cancers, 2020)

Experiments:
[1] = system: HIF-1α; conditions: colon cancers, oxygen concentrations from 5 to 1%; cited from earlier work
[2] = clinical; conditions: human, in vivo
Method: Concentration-time curve and PK parameters were analyzed for each compound. Maximal concentrations (Cmax) and the time to reach the Cmax (Tmax) were graphically identified and the AUC was calculated with a non-compartmental method.

Row | SMILES | inhibition of HIF-1α [1] | Tmax ([2]; Irinotecan D1 Tmax) [h] | AUC ([2]; irinotecan mean AUC) [ng·h/mL] | AUC ([2]; mean AUC of irinotecan) [ng·h/mL] | AUC ([2]; mean irinotecan AUCs) [ng·h/mL] | concentration at 8 day ([2]; D8 rapamycin concentrations) [ng/mL] | Tmax ([2]; Rapamycin D1 Tmax) [h] | AUC ([2]; mean AUC of D8 rapamycin) [ng·h/mL]
1 | CCc1c2c(nc3ccc(OC(=O)N4CCC(N5CCCCC5)CC4)cc13)-c1cc3c(c(=O)n1C2)COC(=O)[C@]3(O)CC [irinotecan] | high inhibition of HIF-1α | 1.67 | 6740 | 6870 | 5970 | – | – | –
2 | CO[C@H]1C[C@@H]2CC[C@@H](C)[C@@](O)(O2)C(=O)C(=O)N2CCCC[C@H]2C(=O)O[C@H]([C@H](C)C[C@@H]2CC[C@@H](O)[C@H](OC)C2)CC(=O)[C@H](C)/C=C(\C)[C@@H](O)[C@@H](OC)C(=O)[C@H](C)C[C@H](C)/C=C/C=C/C=C/1C [rapamycin] | – | – | – | – | – | 6.75 | 3.5 | 176
